The values below come from patent US20070203066A1, “Compositions and methods for inhibiting cellular proliferation” (priority 2005, published 2007).

Non-standard residues stand in square brackets, D forms with d. No end group written: not given here. *: point of attachment. Biotin = O=C1N[C@H]2[C@H](CS[C@H]2CCCCC(=O)*)N1; acyl = not defined here; Ahx = NCCCCCC(=O)O Some results are limits rather than exact numbers.

For this assay, the system named is HUVECs. Type of assay: cell-based. The following applies: HUVEC proliferation, bFGF at 10 ng/ml or VEGF at 5 ng/ml, 48 hours, BrdU incorporation; read-out: IC50 on HUVECs. How it is done: HUVECs were routinely cultured to near confluency in EGM media (Clontech, Mountain View, California). The cells were trypsinized and plated in a 96-well plate at 5,000 cells per well per 100 μl EBM supplemented with 2% FCS and antibiotics. The cells were allowed to adhere to the plate for at least 12 hours. Then, bFGF at 10 ng/ml or VEGF at 5 ng/ml, and various concentrations of peptide, were added to the wells. The cells were cultured for 48 hours at 37 ° C. in a 5% CO2 atmosphere. Cell proliferation was determined using a bromo-deoxyuridine (BrdU) incorporation method as described by the manufacturer. Inhibition of cell proliferation was assessed by BrdU incorporation.
Turning to “1 ([Ahx]RTRRRRRRQRVRIAYEEIFVRNM) [compound 1]”, the IC50 is < 10 µM.
The result for “27 (Ac-RTRRRRRRQRVRIAYEEIFVRNM[Ahx]K; not fully specified) [compound 27]” reads 10 to 30 µM; that for “28 (Ac-RTRRRRRRQRVRIAYEEIFVRNM[Ahx]K-NH2; not fully specified (residue 25); also: homodimer via Ida linker on Lys25 side chain, Ida amino group carries Boc) [compound 28]”, < 10 µM; that for “51 (Ac-KTKRKRKKQRVKIAYEEIFVQNMK; also: homodimer via Ida linker on Lys24 side chain) [compound 51]”, < 10 µM.
As to “59 ([Ahx]RTRRRRRRQRVRIAYEEIFVRNM; also: homodimer of residues 1-24 via Ida linker on Ahx amino group) [compound 59]”, the IC50 is > 30 µM.
Take “104 (Ac-KTKRKRKKQRVKIIFVQNM; also: homodimer via C-terminal Lys linker) [compound 104]”: the concentration for half-maximal inhibition (IC50) was < 10 µM.
Turning to “128 (KTKRKRKKQRVKI[Ahx][Ahx]IF; also: dimer: C-terminus of Phe17 of each chain bound to one amino group of a Lysine linker) [compound 128]”, the IC50 was < 10 µM.
The result for “129 (TKRKRKKQRVKI[Ahx][Ahx]IF; also: dimer: C-terminus of Phe16 of each chain bound to one amino group of a Lysine linker) [compound 129]” reads < 10 µM; that for “135 (KRKRKKQRVKI[Ahx][Ahx]IF; also: dimer: C-terminus of Phe15 of each chain bound to one amino group of a Lysine linker) [compound 135]”, < 10 µM; that for “166 (Biotin-TKRKRKKQRVKIIFV; also: Thr1 biotinylated) [compound 166]”, 10 to 30 µM.
On to “168 (Ac-RRRRRQRVRIIFK; also: homodimer via GP3 linker on Lys13 side chains) [compound 168]”, for which the IC50 is < 10 µM.
In the case of “169 (Ac-KRRRRRQRVRIIF; also: homodimer via Ida linker on Lys1 side chains) [compound 169]” it was < 10 µM.
Turning to “170 (Ac-RRRRRQRVRIIFK; also: homodimer via Ida-PEG 20 kDa linker on Lys13 side chains) [compound 170]”, the IC50 is < 10 µM.
Consider “171 (Ac-RRRRRQRVRIIFK; also: homodimer via GP3-PEG 20 kDa linker on Lys13 side chains) [compound 171]”, for which the IC50 was < 10 µM.
For the substance “172 (acyl-KRRRRRQRVRIIF; not fully specified (residue 1); reading uncertain; also: homodimer via Ida-PEG 20 kDa linker on Lys1 side chains, acyl group not given here) [compound 172]”, the concentration for half-maximal inhibition (IC50) is < 10 µM.
In the case of “173 (Ac-ARRRRQRVRIIF; also: homodimer: C-terminal Phe12 of each chain bound to one amino group of a Lys linker) [compound 173]” it was < 10 µM.
For “174 (Ac-RARRRQRVRIIF; also: homodimer via C-terminal Lys linker) [compound 174]”, the IC50 is < 10 µM.
The result for “175 (Ac-RRARRQRVRIIF; also: homodimer via C-terminal Lys linker) [compound 175]” reads < 10 µM.
For the substance “176 (Ac-RRRARQRVRIIF; also: homodimer via C-terminal Lys linker) [compound 176]”, the IC50 was < 10 µM.
The result for “177 (Ac-RRRRAQRVRIIF; also: homodimer via C-terminal Lys linker) [compound 177]” reads < 10 µM; that for “178 (Ac-RRRRRQAVRIIF; also: dimer: C-terminus of Phe12 of each chain bound to one amino group of a Lys linker) [compound 178]”, < 10 µM; that for “179 (Ac-RRRRRQRVAIIF; also: dimer: C-terminus of Phe12 of each chain bound to one amino group of a Lys linker) [compound 179]”, < 10 µM.
“184 (XRRRRQRVRIIF; Xaa = Acylated Histidine; Dimeric peptide wherein the C terminus of Phe in position 12 of one peptide chain is covalently bound to one of the amino groups of a Lysine linker and Phe of the remaining peptide chain is covalently bound to the other amino group of the Lysine linker.) [compound 184]”: the IC50 is < 10 µM.
In the case of “185 (Ac-RHRRRQRVRIIF; also: homodimer via C-terminal Lys linker) [compound 185]” it was < 10 µM.
The result for “186 (Ac-RRHRRQRVRIIF; also: homodimer via C-terminal Lys linker) [compound 186]” reads < 10 µM; that for “187 (Ac-RRRHRQRVRIIF; also: dimer: C-terminal Phe bound to an amino group of a Lys linker, 2 chains per Lys) [compound 187]”, < 10 µM.
On to “188 (Ac-RRRRHQRVRIIF; also: dimer: C-terminal Phe bound to an amino group of a Lys linker, 2 chains per Lys) [compound 188]”, for which the IC50 was < 10 µM.
Consider “189 (Ac-RRRRRQHVRIIF; also: dimer: C-terminal Phe bound to an amino group of a Lys linker, 2 chains per Lys) [compound 189]”, for which the IC50 is < 10 µM.
For the substance “190 (Ac-RRRRRQRVHIIF; also: dimer: C-terminal Phe bound to an amino group of a Lys linker, 2 chains per Lys) [compound 190]”, the IC50 was < 10 µM.
In the case of “191 (Ac-AARRRQRVRIIF; also: dimer: C-terminal Phe bound to an amino group of a Lys linker, 2 chains per Lys) [compound 191]” it was < 10 µM; in that of “192 (Ac-ARARRQRVRIIF; also: dimer: C-terminal Phe bound to an amino group of a Lys linker, 2 chains per Lys) [compound 192]”, < 10 µM; in that of “193 (Ac-ARRARQRVRIIF; also: dimer: C-terminal Phe bound to an amino group of a Lys linker, 2 chains per Lys) [compound 193]”, < 10 µM.
In the case of “194 (Ac-ARRRAQRVRIIF; also: dimer: C-terminal Phe bound to an amino group of a Lys linker, 2 chains per Lys) [compound 194]” it was < 10 µM; in that of “195 (Ac-ARRRRQAVRIIF; also: dimer: C-terminal Phe bound to an amino group of a Lys linker, 2 chains per Lys) [compound 195]”, < 10 µM; in that of “196 (Ac-ARRRRQRVAIIF; also: dimer: C-terminal Phe bound to an amino group of a Lys linker, 2 chains per Lys) [compound 196]”, < 10 µM.
In the case of “197 (Ac-RAARRQRVRIIF; also: dimer: C-terminal Phe bound to an amino group of a Lys linker, 2 chains per Lys) [compound 197]” it was < 10 µM.
On to “198 (Ac-RARARQRVRIIF; also: dimer: C-terminal Phe bound to an amino group of a Lys linker, 2 chains per Lys) [compound 198]”, for which the IC50 was < 10 µM.
Take “199 (Ac-RARRAQRVRIIF; also: dimer: C-terminal Phe bound to an amino group of a Lys linker, 2 chains per Lys) [compound 199]”: the IC50 was < 10 µM.
The result for “200 (Ac-RARRRQAVRIIF; also: dimer: C-terminal Phe bound to an amino group of a Lys linker, 2 chains per Lys) [compound 200]” reads < 10 µM; that for “201 (Ac-RARRRQRVAIIF; also: dimer: C-terminal Phe bound to an amino group of a Lys linker, 2 chains per Lys) [compound 201]”, < 10 µM.
Turning to “202 (Ac-RRAARQRVRIIF; also: dimer: C-terminal Phe bound to an amino group of a Lys linker, 2 chains per Lys) [compound 202]”, the half-inhibitory concentration (IC50) is < 10 µM.
On to “203 (Ac-RRARAQRVRIIF; also: dimer: C-terminal Phe bound to an amino group of a Lys linker, 2 chains per Lys) [compound 203]”, for which the IC50 was < 10 µM.
In the case of “204 (Ac-RRARRQAVRIIF; also: dimer: C-terminal Phe bound to an amino group of a Lys linker, 2 chains per Lys) [compound 204]” it was < 10 µM; in that of “205 (Ac-RRARRQRVAIIF; also: dimer: Phe C-termini joined via Lys linker) [compound 205]”, < 10 µM.
Regarding “206 (Ac-RRRAAQRVRIIF; also: dimer: Phe C-termini joined via Lys linker) [compound 206]”, the IC50 is < 10 µM.
The result for “207 (Ac-RRRARQAVRIIF; also: dimer: Phe C-termini joined via Lys linker) [compound 207]” reads < 10 µM.

As a reminder, the IC50 is the point on the concentration scale where inhibition reaches its midpoint.
